The values below come from patent publication US20130012432A1, “Peptides for Treatment of Obesity” (Novo Nordisk A/S, priority 2010, published 2013).

A word on the solubility: it is the concentration that dissolves in the medium under given conditions.

≈ marks a conversion by molar mass, not a printed value. Positions of bridges follow the written chain, without caps; N, C: chain ends. Non-standard residues stand in square brackets, D forms with d. Residues, ends and D or L forms follow the SMILES beside them. Groups on a side chain read outwards from the residue. *: point of attachment. Palmitoyl(16-(5-tetrazolyl)) = O=C(CCCCCCCCCCCCCCCc1nnn[nH]1)*; Lys(CH2CO2H)2 = N[C@@H](CCCCN(CC(=O)O)CC(=O)O)C(=O)O; X1 = O=C(O)CCCCCCCCCCCCCCCCC(=O)NCCOCCOCCN*; C16 diacid = O=C(O)CCCCCCCCCCCCCCC(=O)*; Orn = NCCC[C@H](N)C(=O)O; Dab = NCC[C@H](N)C(=O)O; AEEA = NCCOCCOCC(=O)O

The data set is described as follows: physchem. On the procedure:
From a stock solution in vehicle, either H2O or 10 mM phosphate, containing 1 mg (as weighed) compound per ml, 8-11 aliquots are withdrawn and pH-adjusted individually with HCl/NaOH, to cover the whole pH range.

The mark [1] stands for this setting: pH 6.7, Solubility Conc., pH 6.7, vehicle 10 mM phosphate.
Where [2] appears, read: pH 7.2, Solubility Conc., pH 7.2, vehicle 10 mM phosphate.
Setting [3] is: pH 8.1, Solubility Conc., pH 8.1, vehicle 10 mM phosphate.

Take `CC(=O)N[C@H]1CC(=O)NCCC[C@@H](C(=O)N2CCC[C@H]2C(=O)N2CCC[C@H]2C(=O)N[C@@H](CCCNC(=N)N)C(=O)N[C@@H](CC(=O)O)C(=O)N[C@@H](CCCCN(CC(=O)O)CC(=O)O)C(=O)N[C@@H](CCCCNC(=O)COCCOCCNC(=O)CCCCCCCCCCCCCCCc2nnn[nH]2)C(N)=O)NC(=O)[C@H](Cc2c[nH]c3ccccc23)NC(=O)[C@H](CCCNC(=N)N)NC(=O)[C@@H](Cc2ccccc2)NC(=O)[C@H](Cc2c[nH]cn2)NC1=O` [Example 2, Ac-c[Asp-His-D-Phe-Arg-Trp-Orn]-Pro-Pro-Arg-Asp-Lys(biscarboxymethyl)-Lys[(2-{2-[16-(tetrazol-5-yl)hexadecanoylamino]ethoxy}ethoxy)acetyl]-NH2] (Ac-DH[dF]RW[Orn]PPRD[Lys(CH2CO2H)2]K([AEEA-Palmitoyl(16-(5-tetrazolyl))])-NH2; lactam 1-6): the concentration in solution (pH 5.8, Solubility Conc.) (solubility) was 21 µM (≈ 45.9 µg/mL); the solubility (pH 6.4, Solubility Conc.) is 26 µM (≈ 56.9 µg/mL); the concentration in solution (pH 7, Solubility Conc.) (solubility) came to 67 µM (≈ 146 µg/mL); the concentration in solution (pH 7.2, Solubility Conc.) (solubility) came to 172 µM (≈ 376 µg/mL); the solubility (pH 7.3, Solubility Conc.) came out at 267 µM (≈ 584 µg/mL); the solubility (pH 7.4, Solubility Conc.) came to 465 µM (≈ 1020 µg/mL). Moreover, the solubility (pH 7.6, Solubility Conc.) was 454 µM (≈ 993 µg/mL) and the concentration in solution (pH 7.9, Solubility Conc.) (solubility) was 458 µM (≈ 1000 µg/mL).

Take `CC(=O)N[C@H]1CCNC(=O)C[C@@H](C(=O)N2CCC[C@H]2C(=O)N[C@@H](CO)C(=O)N[C@@H](CO)C(=O)N[C@@H](CO)C(=O)N[C@@H](CCCCN(CC(=O)O)CC(=O)O)C(=O)N[C@@H](CO)C(=O)N[C@@H](CO)C(=O)NCCOCCOCCNC(=O)CCCCCCCCCCCCCCCCC(=O)O)NC(=O)[C@H](Cc2c[nH]c3ccccc23)NC(=O)[C@H](CCCNC(=N)N)NC(=O)[C@@H](Cc2ccccc2)NC(=O)[C@H](Cc2c[nH]cn2)NC1=O` [Example 3, Ac-c[Dab-His-D-Phe-Arg-Trp-Asp]-Pro-Ser-Ser-Ser-Lys(biscarboxymethyl)-Ser-Ser-NH(2-{2-[2-(17-carboxyheptadecanoylamino)ethoxy]ethoxy}ethyl)] (Ac-[Dab]H[dF]RWDPSSS[Lys(CH2CO2H)2]SS-X1; lactam 1-6): the solubility worked out at 24 µM (≈ 50.1 µg/mL) (pH 4.9, Solubility Conc., pH 4.9, vehicle 10 mM phosphate); 32 µM (≈ 66.8 µg/mL) (pH 5.6, Solubility Conc., pH 5.6, vehicle 10 mM phosphate); 54 µM (≈ 113 µg/mL) (pH 6.1, Solubility Conc., pH 6.1, vehicle 10 mM phosphate); 154 µM (≈ 321 µg/mL) under setting [1]; 295 µM (≈ 616 µg/mL) (pH 6.9, Solubility Conc., pH 6.9, vehicle 10 mM phosphate); 396 µM (≈ 827 µg/mL) (pH 7.1, Solubility Conc., pH 7.1, vehicle 10 mM phosphate). In addition, the solubility turned out to be 401 µM (≈ 837 µg/mL) under setting [2]; 396 µM (≈ 827 µg/mL) (pH 7.4, Solubility Conc., pH 7.4, vehicle 10 mM phosphate); 345 µM (≈ 720 µg/mL) (pH 7.7, Solubility Conc., pH 7.7, vehicle 10 mM phosphate); 360 µM (≈ 751 µg/mL) under setting [3].

For the molecule `CC(=O)N[C@H]1CCCNC(=O)CC[C@@H](C(=O)N2CCC[C@H]2C(=O)N2CCC[C@H]2C(=O)N[C@@H](CCCNC(=N)N)C(=O)N[C@@H](CC(=O)O)C(=O)N[C@@H](CCCCN(CC(=O)O)CC(=O)O)C(=O)N[C@@H](CCCCNC(=O)COCCOCCNC(=O)CCCCCCCCCCCCCCCc2nnn[nH]2)C(N)=O)NC(=O)[C@H](Cc2c[nH]c3ccccc23)NC(=O)[C@H](CCCNC(=N)N)NC(=O)[C@@H](Cc2ccccc2)NC(=O)[C@H](Cc2c[nH]cn2)NC1=O` [Example 8, Ac-c[Orn-His-D-Phe-Arg-Trp-Glu]-Pro-Pro-Arg-Asp-Lys(biscarboxymethyl)-Lys[(2-{2-[16-(tetrazol-5-yl)hexadecanoylamino]ethoxy}ethoxy)acetyl]-NH2] (Ac-[Orn]H[dF]RWEPPRD[Lys(CH2CO2H)2]K([AEEA-Palmitoyl(16-(5-tetrazolyl))])-NH2; lactam 1-6), the solubility reads like this: (pH 6.5, Solubility Conc.) 35 µM (≈ 77 µg/mL); (pH 6.8, Solubility Conc.) 44 µM (≈ 96.8 µg/mL); (pH 7, Solubility Conc.) 91 µM (≈ 200 µg/mL); (pH 7.2, Solubility Conc.) 268 µM (≈ 590 µg/mL); (pH 7.3, Solubility Conc.) 482 µM (≈ 1060 µg/mL); (pH 7.4, Solubility Conc.) 551 µM (≈ 1210 µg/mL). Moreover, the solubility is, setting by setting: (pH 7.5, Solubility Conc.) 538 µM (≈ 1180 µg/mL); (pH 7.6, Solubility Conc.) 582 µM (≈ 1280 µg/mL); (pH 7.8, Solubility Conc.) 556 µM (≈ 1220 µg/mL).

Take `CC(=O)N[C@H]1CCCNC(=O)C[C@@H](C(=O)N2CCC[C@H]2C(=O)N[C@@H](CO)C(=O)N[C@@H](CO)C(=O)N[C@@H](CO)C(=O)N[C@@H](CCCCN(CC(=O)O)CC(=O)O)C(=O)N[C@@H](CO)C(=O)N[C@@H](CO)C(=O)N[C@@H](CCCCNC(=O)COCCOCCNC(=O)CCCCCCCCCCCCCCC(=O)O)C(N)=O)NC(=O)[C@H](Cc2c[nH]c3ccccc23)NC(=O)[C@H](CCCNC(=N)N)NC(=O)[C@@H](Cc2ccccc2)NC(=O)[C@H](Cc2c[nH]cn2)NC1=O` [Example 12, Ac-c[Orn-His-D-Phe-Arg-Trp-Asp]-Pro-Ser-Ser-Ser-Lys(biscarboxymethyl)-Ser-Ser-Lys({2-[2-(15-carboxypentadecanoylamino)ethoxy]ethoxy}acetyl)-NH2] (Ac-[Orn]H[dF]RWDPSSS[Lys(CH2CO2H)2]SSK([AEEA-C16 diacid])-NH2; lactam 1-6): the solubility runs as follows: (pH 4.8, Solubility Conc., pH 4.8, vehicle 10 mM phosphate) 228 µM (≈ 505 µg/mL); (pH 5.8, Solubility Conc., pH 5.8, vehicle 10 mM phosphate) 300 µM (≈ 665 µg/mL); (pH 6.3, Solubility Conc., pH 6.3, vehicle 10 mM phosphate) 400 µM (≈ 886 µg/mL); under setting [1], 431 µM (≈ 955 µg/mL); (pH 7, Solubility Conc., pH 7.0, vehicle 10 mM phosphate) 426 µM (≈ 944 µg/mL); under setting [2], 479 µM (≈ 1060 µg/mL). Further, the solubility came out at 405 µM (≈ 897 µg/mL) (pH 7.5, Solubility Conc., pH 7.5, vehicle 10 mM phosphate); 480 µM (≈ 1060 µg/mL) (pH 7.8, Solubility Conc., pH 7.8, vehicle 10 mM phosphate); 439 µM (≈ 973 µg/mL) under setting [3].

As to `CC(=O)N[C@H]1CCC(=O)NCC[C@@H](C(=O)N2CCC[C@H]2C(=O)N2CCC[C@H]2C(=O)N[C@@H](CCCNC(=N)N)C(=O)N[C@@H](CC(=O)O)C(=O)N[C@@H](CCCCN(CC(=O)O)CC(=O)O)C(=O)N[C@@H](CCCCNC(=O)COCCOCCNC(=O)CCCCCCCCCCCCCCCc2nnn[nH]2)C(N)=O)NC(=O)[C@H](Cc2c[nH]c3ccccc23)NC(=O)[C@H](CCCNC(=N)N)NC(=O)[C@@H](Cc2ccccc2)NC(=O)[C@H](Cc2c[nH]cn2)NC1=O` [Example 16, Ac-c[Glu-His-D-Phe-Arg-Trp-Dab]-Pro-Pro-Arg-Asp-Lys(biscarboxymethyl)-Lys[(2-{2-[16-(tetrazol-5-yl)hexadecanoylamino]ethoxy}ethoxy)acetyl]-NH2] (Ac-EH[dF]RW[Dab]PPRD[Lys(CH2CO2H)2]K([AEEA-Palmitoyl(16-(5-tetrazolyl))])-NH2; lactam 1-6), the solubility by setting is: (pH 6.7, Solubility Conc.) 42 µM (≈ 91.8 µg/mL); (pH 7.1, Solubility Conc.) 96 µM (≈ 210 µg/mL); (pH 7.3, Solubility Conc.) 191 µM (≈ 418 µg/mL); (pH 7.4, Solubility Conc.) 262 µM (≈ 573 µg/mL); (pH 7.5, Solubility Conc.) 357 µM (≈ 781 µg/mL); (pH 7.6, Solubility Conc.) 431 µM (≈ 942 µg/mL). In addition, the solubility was 409 µM (≈ 894 µg/mL) (pH 7.8, Solubility Conc.) and 447 µM (≈ 977 µg/mL) (pH 8, Solubility Conc.).

`CC(=O)N[C@H]1CCCNC(=O)C[C@@H](C(=O)N2CCC[C@H]2C(=O)N2CCC[C@H]2C(=O)N[C@@H](CCCNC(=N)N)C(=O)N[C@@H](CC(=O)O)C(=O)N[C@@H](CCCCN(CC(=O)O)CC(=O)O)C(=O)N[C@@H](CCCCNC(=O)COCCOCCNC(=O)CCCCCCCCCCCCCCCc2nnn[nH]2)C(N)=O)NC(=O)[C@H](Cc2c[nH]c3ccccc23)NC(=O)[C@H](CCCNC(=N)N)NC(=O)[C@@H](Cc2ccccc2)NC(=O)[C@H](Cc2c[nH]cn2)NC1=O` [Example 17, Ac-c[Orn-His-D-Phe-Arg-Trp-Asp]-Pro-Pro-Arg-Asp-Lys(biscarboxymethyl)-Lys[(2-{2-[16-(tetrazol-5-yl)hexadecanoylamino]ethoxy}ethoxy)acetyl]-NH2] (Ac-[Orn]H[dF]RWDPPRD[Lys(CH2CO2H)2]K([AEEA-Palmitoyl(16-(5-tetrazolyl))])-NH2; lactam 1-6) returned a solubility (pH 5.8, Solubility Conc.) of 25 µM (≈ 54.7 µg/mL); a solubility (pH 6.7, Solubility Conc.) of 45 µM (≈ 98.4 µg/mL); a solubility (pH 6.9, Solubility Conc.) of 75 µM (≈ 164 µg/mL); a solubility (pH 7.2, Solubility Conc.) of 297 µM (≈ 649 µg/mL); a solubility (pH 7.3, Solubility Conc.) of 428 µM (≈ 936 µg/mL); a solubility (pH 7.4, Solubility Conc.) of 490 µM (≈ 1070 µg/mL). Besides, the solubility reads like this: (pH 7.8, Solubility Conc.) 470 µM (≈ 1030 µg/mL); (pH 8, Solubility Conc.) 487 µM (≈ 1060 µg/mL).

Regarding `CC(=O)N[C@H]1CCC(=O)NCCC[C@@H](C(=O)N2CCC[C@H]2C(=O)N2CCC[C@H]2C(=O)N[C@@H](CCCNC(=N)N)C(=O)N[C@@H](CC(=O)O)C(=O)N[C@@H](CCCCN(CC(=O)O)CC(=O)O)C(=O)N[C@@H](CCCCNC(=O)COCCOCCNC(=O)CCCCCCCCCCCCCCC(=O)O)C(N)=O)NC(=O)[C@H](Cc2c[nH]c3ccccc23)NC(=O)[C@H](CCCNC(=N)N)NC(=O)[C@@H](Cc2ccccc2)NC(=O)[C@H](Cc2cnc[nH]2)NC1=O` [Example 18, Ac-c[Glu-His-D-Phe-Arg-Trp-Orn]-Pro-Pro-Arg-Asp-Lys(biscarboxymethyl)-Lys({2-[2-(15-carboxypentadecanoylamino)ethoxy]ethoxy}acetyl)-NH2] (Ac-EH[dF]RW[Orn]PPRD[Lys(CH2CO2H)2]K([AEEA-C16 diacid])-NH2; lactam 1-6), the solubility runs as follows: (pH 5.3, Solubility Conc.) 193 µM (≈ 417 µg/mL); (pH 6.1, Solubility Conc.) 310 µM (≈ 670 µg/mL); (pH 6.4, Solubility Conc.) 326 µM (≈ 705 µg/mL); (pH 6.5, Solubility Conc.) 392 µM (≈ 848 µg/mL); (pH 6.8, Solubility Conc.) 447 µM (≈ 967 µg/mL); (pH 7.1, Solubility Conc.) 484 µM (≈ 1050 µg/mL). The solubility was determined as 449 µM (≈ 971 µg/mL) (pH 7.4, Solubility Conc.); 451 µM (≈ 975 µg/mL) (pH 7.7, Solubility Conc.); 474 µM (≈ 1030 µg/mL) (pH 7.9, Solubility Conc.).
